According to article PMC13403234, “Engineering Cathepsin S Selective Chemical Probes and Antibody−Drug Conjugates through Substrate Profiling with Unnatural Amino Acids” (Journal of Medicinal Chemistry, 2026):

Tests used:
[1] = target: T1, active cathepsin S in MDA-MB-231 live cells (Homo sapiens, UniProt P25774); test: Labeling of active cathepsin S in MDA-MB-231 live cells with Cy5 probes; format: cell-based; details: probe 1 μM, 0,5 to 24 h
T1 construct: endogenous in cells; host or cells: MDA-MB-231
T1 sequence (P25774 115-331): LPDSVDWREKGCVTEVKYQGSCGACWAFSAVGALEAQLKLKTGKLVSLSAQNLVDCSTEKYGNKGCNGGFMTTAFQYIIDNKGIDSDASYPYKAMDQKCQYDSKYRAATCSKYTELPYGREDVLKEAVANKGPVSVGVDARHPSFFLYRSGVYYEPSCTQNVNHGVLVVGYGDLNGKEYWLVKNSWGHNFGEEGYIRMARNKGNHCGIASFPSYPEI
Protocol: (§1) 50,000 of MDA-MB-231 cells were seeded into 12-well plate and allowed to attach overnight. The next day, OG-233 and OG-234 probes (1 μM final concentration) were added to the cells and incubated for various times (from 0,5 h up to 24 h). Control cells were preincubated with cathepsin S inhibitors (JN1, JN4, JN7) at 25 μM for 2 h, and then incubated with OG-233 or OG-234 probes for 24 h. Next, cells were harvested and prepared for SDS-PAGE analysis as described in the above section. Electrophoresis was run for 25 min (4−12% Bis-Tris Plus 10-well gel, 200 V). Next, proteins were transferred onto the membrane (0.2 μm nitrocellulose membrane, 10 V, 60 min) and Ponceau S was used to verify equal loading and transfer. Membranes were then blocked with 5% BSA in TBS-T buffer for 1 h at RT. Membranes were next incubated anticathepsin S antibody (1:1,000, overnight, 4 °C), and the next day with a secondary antibody (IRDye 800CW, donkey anti-Goat) for 30 min at RT, and scanned at 680 and 800 nm using the Sapphire biomolecular imager (Azure Biosystems) to detect the Cy5 probes and cathepsin S. All images were analyzed with Image Studio software.

[2] = target: T2, Cathepsin B (Homo sapiens, UniProt P07858); test: Labeling of cathepsin B in MDA-MB-231 live cells with Cy5 probes; format: cell-based; design: endogenous in cells; host or cells: MDA-MB-231; details: cellular environments; probe labeling
Protocol: as §1

[3] = target: T3, Cathepsin S (Homo sapiens, UniProt P25774); test: Second-order rate constants of inhibition (kobs/[I]), cathepsin S; format: biochemical
T3 construct: made in house
T3 sequence (P25774 115-331): as above
Protocol: (§2) All kinetic studies were performed using an fMax fluorescence plate reader (Molecular Devices) in kinetic mode with 96- or 384-well plates. ACC fluorescence was monitored at excitation and emission wavelengths of 355 and 460 nm, respectively. Recombinant human cysteine cathepsins L, V, B, K, and S were expressed and purified as previously described. Prior to use, all cysteine cathepsins were titrated with E64 to normalize enzymatic activity. Assays for cathepsins were conducted in 100 mM sodium acetate buffer containing 10 mM NaCl and 10 mM DTT (pH 5.5). Breast cancer cell lysates (BT-474, MCF-7, MDA-MB-231) were prepared by culturing cells to confluence in the appropriate media, replacing media with PBS, and harvesting the cells using a cell scraper (without trypsin). The cells were pelleted by centrifugation (400 × g, 5 min), resuspended in PBS, and centrifuged again under the same conditions. After removal of the supernatant, the pellet was resuspended in cathepsin assay buffer (excluding DTT) and sonicated. Lysates were then clarified by centrifugation (12,000 × g, 5 min), and the supernatants were collected and stored at −80 °C until use. All enzymatic assays, including HyCoSuL library screening and kinetic analyses of synthetic substrates, inhibitors, probes and prodrugs, were conducted at 37 °C and repeated at least three times. Mean values are reported. Kinetic data were analyzed using GraphPad Prism software (version 10.4.1).
(§3) The second-order rate constants of inhibition (k obs/[I]) were determined for human recombinant cathepsins S, B, L, and V using their respective assay buffers. All measurements were performed under pseudo-first-order kinetic conditions, as previously described. Inhibitors or ABPs were serially diluted in assay buffer and transferred to a 96-well plate. Each well was supplemented with the fluorogenic substrate Cbz-Phe-Arg-AMC at a final concentration of 25 μM and preincubated for 15 min. In parallel, enzymes were preactivated in assay buffer for 15 min at room temperature. Following preincubation, the activated enzymes were added to the wells, and fluorescence was monitored immediately for 30 min. The k obs/[I] values (M^-1S^-1) were calculated from the progress curves and averaged from at least three independent experiments. Final inhibitor (or ABP) concentrations were maintained at a minimum of 5-fold excess relative to enzyme concentrations to ensure pseudo-first-order conditions. Results were analyzed in GraphPad Prism and are reported as mean ± standard deviation.

[4] = target: T2, Cathepsin B; test: Second-order rate constants of inhibition (kobs/[I]), cathepsin B; format: biochemical; design: made in house; details: Figure 4D; Cy5- and BODIPY-labeled probes
Protocol: as §2, §3

[5] = target: T3, Cathepsin S; test: SDS-PAGE profiling of cathepsin labeling by OG-233 ABP; format: biochemical; details: cathepsins 10 nM; probe 10, 100, 500 nM; 30 min
Protocol: Subsequently, each enzyme preparation was incubated with OG-233 at final probe concentrations of 10 nM, 100 nM, and 500 nM for 30 min in a total reaction volume of 200 μL. After incubation, 100 μL of 3× SDS loading buffer containing DTT was added to each sample. The mixtures were boiled for 5 min, and 20 μL of each sample was loaded onto 4−12% Bis-Tris Plus gels (15-well format). Electrophoresis was performed at 200 V for 30 min alongside 2 μL of PageRuler Prestained Protein Ladder. Following separation, the gels were scanned directly at 700 nm (Cy5 fluorescence channel, excitation 685 nm) using a Sapphire biomolecular imager (Azure Biosystems). Band intensities corresponding to labeled cathepsins were quantified using Image Studio software.

[6] = target: T4, Cathepsin V (Homo sapiens, UniProt O60911); test: Second-order rate constants of inhibition (kobs/[I]), cathepsin V; format: biochemical; details: Figure 4D; Cy5- and BODIPY-labeled probes
T4 construct: made in house
T4 sequence (O60911 114-334): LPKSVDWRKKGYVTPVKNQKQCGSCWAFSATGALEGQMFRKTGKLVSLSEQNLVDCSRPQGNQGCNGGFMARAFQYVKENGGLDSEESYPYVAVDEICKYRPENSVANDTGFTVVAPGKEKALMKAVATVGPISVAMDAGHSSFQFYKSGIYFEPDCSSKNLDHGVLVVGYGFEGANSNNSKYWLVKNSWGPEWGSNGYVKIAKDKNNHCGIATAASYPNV
Protocol: as §2, §3

[7] = target: T5, Cathepsin L (Homo sapiens, UniProt P07711); test: Second-order rate constants of inhibition (kobs/[I]), cathepsin L; format: biochemical; details: Figure 4D; Cy5- and BODIPY-labeled probes
T5 construct: made in house
T5 sequence (P07711 114-333): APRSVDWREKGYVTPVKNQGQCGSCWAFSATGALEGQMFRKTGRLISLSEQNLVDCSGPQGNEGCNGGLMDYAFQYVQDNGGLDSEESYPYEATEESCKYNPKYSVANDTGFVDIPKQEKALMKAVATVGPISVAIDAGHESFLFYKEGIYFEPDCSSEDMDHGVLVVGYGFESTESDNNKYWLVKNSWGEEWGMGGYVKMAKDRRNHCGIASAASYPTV
Protocol: as §2, §3

Cy5-PEG(4)-Phe(F5)-Cit-Lys(2ClZ)-Glu(Me)-AOMK [OG-233]
detection of active cathepsin S in living cells [1]: able to detect active cathepsin S as soon as upon 3 h incubation | off-target labeling of cathepsin B in cells [2]: minor off-target labeling of cathepsin B | kobs/[I] Cath S ([3]; Figure 4D, Cy5- and BODIPY-labeled probes): 1,537,000 M^-1s^-1 | Selectivity S to B ([3]; Figure 4D, calculated from kobs/[I], cathepsin S over cathepsin B): 180 | Selectivity S to L ([3]; Figure 4D, calculated from kobs/[I], cathepsin S over cathepsin L): 2,700 | Selectivity S to V ([3]; Figure 4D, calculated from kobs/[I], cathepsin S over cathepsin V): 3,340 | higher potency than the unlabeled parent inhibitor ([3]; cathepsin S kobs/[I], probe vs parent inhibitor): over 2 fold | selectivity for cathepsin S over cathepsin L ([3]; kobs/[I] based): > 2000 fold | selectivity for cathepsin S over cathepsin V ([3]; kobs/[I] based): > 500 fold | kobs/[I] Cath B [4]: 8,520 M^-1s^-1 | labeling of recombinant cathepsins (fluorescent gel scanning) [5]: labeled recombinant cathepsin S over other cathepsins | kobs/[I] Cath V [6]: 460 M⁻¹ s⁻¹ | kobs/[I] Cath L [7]: 570 M⁻¹ s⁻¹
